Data taken from publication PMC12040169 (PLOS Biology, 2025).

Test: in vitro
Conditions: human, hela cells, % viability

| SMILES | viability at 28.5 h, 10 µM [%] |
| --- | --- |
| CC(C)Oc1ccc(C(=O)C2=C(O)C(=O)N(Cc3cccnc3)C2c2ccncc2)cc1 (stereo not drawn) [CBK264920] | 90 |
| O=C(CN1CCCCC1)NCCNc1ccc([N+](=O)[O-])cc1Cl [CBK264922] | 115 |
| Cc1noc(NS(=O)(=O)c2ccc(NC(=O)C3COc4ccccc4O3)cc2)c1C (stereo not drawn) [CBK264923] | 90.1 |
| Cc1ccc(C23CC4CC(CC(C(=O)NC(C(=O)O)C(C)C)(C4)C2)C3)cc1 (stereo not drawn) [CBK264924] | 110 |
| COc1ccc(C(=O)/C=C/c2cccs2)c(OC(=O)c2ccc([N+](=O)[O-])cc2)c1 [CBK264926] | 118 |
| COc1ccc(OC)c(NC(=S)NCCN2CCOCC2)c1 [CBK264927] | 96.9 |
| COc1ccc(C(=O)C2=C(O)C(=O)N(Cc3cccnc3)C2c2ccc(OC)cc2OC)c(C)c1 (stereo not drawn) [CBK264928] | 89.7 |
| CC(=O)Nc1ccc(Nc2ncnc3scc(-c4ccccc4)c23)cc1 [CBK264930] | 93.6 |
| COc1cc(C2C(C(=O)c3ccc(C)o3)=C(O)C(=O)N2Cc2cccnc2)cc(OC)c1OC (stereo not drawn) [CBK264933] | 110 |
| CC(NC(=O)/C(=C\c1ccccc1)NC(=O)c1ccc(Br)o1)C(=O)O (stereo not drawn) [CBK264934] | 107 |
| COc1cc(NC(=S)NCc2ccc(S(N)(=O)=O)cc2)cc(OC)c1 [CBK264935] | 108 |
| CC(C)Oc1ccc(C(=O)C2=C(O)C(=O)N(Cc3cccnc3)C2c2cccc([N+](=O)[O-])c2)cc1 (stereo not drawn) [CBK264936] | 89.2 |
| COC(=O)CC1C(=O)NCCN1C(=O)COc1ccc(Cl)cc1 (stereo not drawn) [CBK264938] | 80 |
| CCc1cc(-c2[nH]nc(C)c2Oc2ccc(C(C)C)cc2)c(O)cc1O [CBK264940] | 90.7 |
| CC/C(=C\c1sc2ccc3ccccc3c2[n+]1CCCS(=O)[O-])SC [CBK264941] | 107 |
| COC(=O)c1c(C)oc2cc(Br)c(OCC(=O)c3ccc(Cl)cc3)cc12 [CBK264946] | 83.5 |
| COc1cc(CCN2C(=O)c3cccc4cccc(c34)C2=O)c(S(=O)(=O)N2CCCC2)cc1OC [CBK264947] | 102 |
| O=C(Nc1ccccc1C(=O)N1CCN(Cc2ccccc2)CC1)c1ccc(F)cc1 [CBK264948] | 99.3 |
| CCOC(=O)c1c(C(C)(C)C)oc2ccc(OCC(=O)c3ccc(OC)cc3)cc12 [CBK264950] | 123 |
| O=[N+]([O-])c1ccc(N2CCN(S(=O)(=O)Cc3ccccc3)CC2)cc1N1CCN(Cc2ccccc2)CC1 [CBK264951] | 101 |
| Nc1nc(SCC(=O)NCCCO)nc2sc3c(c12)CCC3 [CBK264952] | 88.7 |

| SMILES | viability at 28.5 h, 10 µM [%] |
| --- | --- |
| O=C1NC2(Nc3ccccc31)C(=O)N(Cc1cccc3ccccc13)c1ccccc12 (stereo not drawn) [CBK264954] | 108 |
| COc1cc([N+](=O)[O-])ccc1NC(=O)C1CC(Cl)=CCC1C(=O)O (stereo not drawn) [CBK264956] | 88.8 |
| O=C(NCc1ccccn1)C1CCN(S(=O)(=O)c2ccc(Cl)cc2)CC1 [CBK264959] | 90.2 |
| CC(C)(C)C(=O)CSc1nnc(-c2ccccc2)n1Cc1ccccc1 [CBK264960] | 108 |
| CCCCOC(=O)c1c(N)n(CCOC)c2nc3ccccc3nc12 [CBK264961] | 96.9 |
| CCOc1cc(/C=C2/SC(=S)N(c3cccc(C(F)(F)F)c3)C2=O)ccc1OCC(=O)O [CBK264965] | 106 |
| CCOc1cc(/C=C2/SC(=S)N(c3cccc(Cl)c3)C2=O)ccc1OCC(=O)O [CBK264966] | 94.2 |
| Cc1ccc(S(=O)(=O)NCCCC(=O)Oc2cc3oc(=O)c4c(c3cc2Cl)CCC4)cc1 [CBK264967] | 86.8 |
| Cc1cc(Br)cc(C)c1NC(=O)CSc1nnc(COc2ccccc2Cl)o1 [CBK264968] | 93 |
| Cc1ccc(S(=O)(=O)N(C)c2c(C)ccc(S(=O)(=O)N(C)CCO)c2C)cc1 [CBK264970] | 85.5 |
| COc1cc(S(=O)(=O)NCc2ccc3c(c2)OCO3)c(OC)cc1Cl [CBK264972] | 97.1 |
| O=S(=O)(NCCN1CCOCC1)c1ccc(Cl)c(Cl)c1Cl [CBK264973] | 109 |
| O=C(/C=C/c1ccco1)Nc1cccc2c(NC(=O)/C=C/c3ccco3)cccc12 [CBK264974] | 99.7 |
| O=C(Cn1cnc2ccccc2c1=O)Oc1cccc(NC2=NS(=O)(=O)c3ccccc32)c1 [CBK264975] | 83.6 |
| CCOC(=O)c1c(N)n(-c2cccc(C(F)(F)F)c2)c2nc3ccccc3nc12 [CBK264977] | 95.6 |
| COc1ccc(-c2nc3cc(NC(=O)C(c4ccccc4)c4ccccc4)ccc3o2)cc1 [CBK264980] | 113 |
| CCCCC12CN3CCN(CC(C3)/C1=N\N=C1/C3CN4CCN(C3)CC1(CCCC)C4)C2 [CBK264981] | 104 |
| O=C1N=C(Nc2cccc(C(=O)O)c2)S/C1=C/c1cccc(O)c1 [CBK264984] | 92.5 |
| Cc1cccc(C(=O)NC(=S)Nc2cccc(C(=O)O)c2)c1 [CBK264987] | 121 |
| Cc1nc(CC(=O)O)c(-c2ccccc2)s1 [CBK264988] | 110 |
| O=C(CSc1ccc(Cl)cc1)Nc1cccc(-c2nc3ncccc3o2)c1 [CBK264989] | 105 |

| SMILES | viability at 28.5 h, 10 µM [%] |
| --- | --- |
| Cc1ccc(S(=O)(=O)NCCCN2CCOCC2)c(C)c1C [CBK264990] | 89.7 |
| CC(=O)Nc1cc(Cl)ccc1OS(=O)(=O)c1ccc(Cl)cc1 [CBK264992] | 90.3 |
| CC(NC(=O)CSc1nnc(-c2ccc(Cl)cc2)n1-c1ccccc1)c1ccccc1 (stereo not drawn) [CBK264993] | 87 |
| COc1ccc(/C=C(/NC(=O)/C=C/c2ccccc2)C(=O)O)cc1 [CBK264996] | 94.8 |
| C=CCN(CC=C)Cc1c(C)nc2ccc(CC)cc2c1O [CBK264998] | 92.6 |
| CC1(C)Cc2c(sc(NC(=O)C3CC(Cl)=CCC3C(=O)O)c2C#N)CO1 (stereo not drawn) [CBK265002] | 97.6 |
| O=C(COc1ccc([N+](=O)[O-])cc1)Nc1ccc(S(=O)(=O)N2CCCCC2)cc1 [CBK265003] | 119 |
| Cc1cc(C)nc(NC(=O)COc2ccc([N+](=O)[O-])cc2)n1 [CBK265004] | 101 |
| O=C(CSc1nc[nH]n1)Nc1ccccc1[N+](=O)[O-] [CBK265005] | 100 |
| CCc1ccc(OCC(=O)Nc2ccc3oc(-c4ccc(F)cc4Cl)nc3c2)cc1 [CBK265010] | 100 |
| O=C(O)c1ccc(CSc2nnc(-c3ccccc3)n2Cc2ccccc2)cc1 [CBK265013] | 114 |
| Cc1ccc(S(=O)(=O)Oc2cccc(C(c3c(C)n[nH]c3O)c3c(C)n[nH]c3O)c2)cc1 [CBK265016] | 95.1 |
| CC(=O)c1c(C)[n+]([O-])c2cc(Cl)c(Cl)cc2[n+]1[O-] [CBK265017] | 108 |
| CC(C)(C)c1ccc(CNC(=O)C2CCCN2S(=O)(=O)c2ccc3ccccc3c2)cc1 (stereo not drawn) [CBK265020] | 109 |
| COc1cc(C2SCC(=O)Nc3c2c(-c2ccccc2)nn3-c2ccccc2)cc(OC)c1OC (stereo not drawn) [CBK265025] | 108 |
| NC(=O)COc1cccc(/C=C2/SC(Nc3cccc(C(=O)O)c3)=NC2=O)c1 [CBK265027] | 104 |
| COc1cc(/C=N/N=C(/Nc2ccc(C)cc2)c2nc3ccccc3s2)ccc1O [CBK265029] | 103 |
| CCOC(=O)c1cnc2ccc(Br)cc2c1NCc1cccnc1 [CBK265030] | 83.5 |
| Cc1ccc(OCc2nnc(SCC(=O)c3cccs3)n2-c2ccccc2)cc1C [CBK265033] | 101 |
| CN(C)CCN(CC#Cc1ccccc1)CC#Cc1ccccc1 [CBK265035C] | 116 |
| S=c1n(CN2CCC(c3ccccc3)CC2)nc(Cc2ccccc2)n1-c1ccccc1 [CBK265037] | 95.2 |

| SMILES | viability at 28.5 h, 10 µM [%] |
| --- | --- |
| O=[N+]([O-])c1ccc(Sc2nnc(COc3ccccc3)n2-c2ccccc2)nc1 [CBK265041] | 85.8 |
| CCCCOC(=O)c1c(N)n(-c2ccc(C(=O)O)cc2)c2nc3ccccc3nc12 [CBK265046] | 94.6 |
| Cn1c(Sc2ccc(C(=O)O)cc2[N+](=O)[O-])nnc1-c1ccccc1 [CBK265047] | 103 |
| CCC(=O)NC(c1ccc(C)cc1)c1cc([N+](=O)[O-])c2cccnc2c1O (stereo not drawn) [CBK265048] | 121 |
| COc1ccccc1/C=N/N=C(/Nc1ccc(C)cc1)c1nc2ccccc2s1 [CBK265051] | 124 |
| S=c1[nH]nc(Cc2cccc3ccccc23)n1-c1ccccc1 [CBK265052] | 97.3 |
| N#C/C(=C\c1ccc(-c2cccc(C(=O)O)c2)o1)c1nc2ncc(Br)cc2[nH]1 [CBK265054] | 96.1 |
| Clc1ccc(SCCN2CCOCC2)cc1 [CBK265055G] | 98.8 |
| O=C(CN1CCOCC1)Nc1sc2c(c1C(=O)Nc1ccc(Cl)cc1)CCC2 [CBK265056] | 102 |
| C=CCSC1=N/C(=C\c2ccc(C(=O)O)cc2)C(=O)S1 [CBK265057] | 95.7 |
| Cc1cccc(C(C)(C)C)c1OCCNCCN [CBK265058G] | 118 |
| O=C(NC(=S)Nc1ccc(C(=O)O)c(Cl)c1)c1ccc(-c2ccc(Cl)cc2)o1 [CBK265063] | 105 |
| COc1ccc(C(=O)O)cc1NC(=S)NC(=O)c1ccc(-c2ccccc2)cc1 [CBK265064] | 99.5 |
| CC(=O)Nc1ccccc1NC(=O)COc1ccc(Br)cc1C [CBK265072] | 103 |
| Cc1ncc(CO)c(/C=N/N=C/c2ccc(O)c(O)c2)c1O [CBK265075] | 103 |
| O=C(CN1CCCCCC1)Nc1sc2c(c1C(=O)Nc1ccc(Br)cc1)CCC2 [CBK265076] | 109 |
| Cc1ccc(S(=O)(=O)N/N=C/C=C/c2ccc(N(C)C)cc2)cc1 [CBK265078] | 99.7 |
| CC(=O)Nc1ccc(NC(=O)c2cc(-c3ccc(Cl)cc3Cl)nc3ccccc23)cc1 [CBK265080] | 80.8 |
| OCCNCCOc1ccc(Cl)cc1Br [CBK265083G] | 116 |
| Clc1ccccc1CSc1nnc2c(n1)OC=Nc1ccccc1-2 [CBK265085] | 99.1 |
| O=C(Nc1sc2c(c1C(=O)NCc1ccco1)CCCC2)c1sc2ccccc2c1Cl [CBK265086] | 92.1 |
